Source: ChEMBL document CHEMBL4130431, “Synthesis and Evaluation of Dolastatin 10 Analogues Containing Heteroatoms on the Amino Acid Side Chains” (2017)
Calls of active or inactive are those of the source. The rule behind the calls is not given here. Non-standard residues stand in square brackets, D forms with d. Residues, ends and D or L forms follow the SMILES beside them. *: point of attachment. Dolaproine = CO[C@@H]([C@@H]1CCCN1)[C@@H](C)C(=O)O; Abu(3S-N3) = C[C@H](N=[N+]=[N-])[C@H](N)C(=O)O; Dil = CC[C@H](C)[C@H](NC)[C@@H](CC(=O)O)OC; Abu(3S-NH2) = C[C@H](N)[C@H](N)C(=O)O; Dap(N3) = [N-]=[N+]=NC[C@H](N)C(=O)O; NMe2Val = CC(C)[C@@H](C(=O)*)N(C)C; Aha = [N-]=[N+]=NCC[C@H](N)C(=O)O; Pra = C#CC[C@H](N)C(=O)O; Dab = NCC[C@H](N)C(=O)O; Dap = NC[C@H](N)C(=O)O; NHtBu = CC(C)(C)N*; OtBu = CC(C)(C)O*

What was measured:
[1] = tested on: HCC1954; test: Growth inhibition of human HCC1954 cells after 4 to 6 days by Presto blue assay; type: functional
[2] = tested on: PC-3; test: Growth inhibition of human PC3 cells after 4 to 6 days by Presto blue assay; type: functional
[3] = species: Bos taurus; test: Inhibition of bovine brain tubulin polymerization at 10 uM after 60 mins by spectrophotometric method

Structure (SMILES): CC[C@H](C)[C@@H]([C@@H](CC(=O)N1CCC[C@H]1[C@H](OC)[C@@H](C)C(=O)NCCc1ccccn1)OC)N(C)C(=O)[C@@H](NC(=O)[C@H](C(C)C)N(C)C)[C@@H](C)O
- GI50 [1]: 21 nM

Structure (SMILES): CC[C@H](C)[C@@H]([C@@H](CC(=O)N1CCC[C@H]1[C@H](OC)[C@@H](C)C(=O)N[C@H](C)[C@@H](O)c1ccccc1)OC)N(C)C(=O)[C@@H](NC(=O)[C@H](C(C)C)N(C)C)[C@H](C)N=[N+]=[N-]
- GI50 [1]: 34 nM
- GI50 [2]: 50 nM

Structure (SMILES): CC[C@H](C)[C@@H]([C@@H](CC(=O)N1CCC[C@H]1[C@H](OC)[C@@H](C)C(=O)N[C@@H](Cc1ccccc1)c1nnn[nH]1)OC)N(C)C(=O)[C@@H](NC(=O)[C@H](C(C)C)N(C)C)[C@H](C)N=[N+]=[N-]
- GI50 [1]: 27 nM
- GI50 [2]: 41 nM
- inhibition [3]: Active

Structure (SMILES): CC[C@H](C)[C@@H]([C@@H](CC(=O)N1CCC[C@H]1[C@H](OC)[C@@H](C)C(=O)NCCc1ccccc1Cl)OC)N(C)C(=O)[C@@H](NC(=O)[C@H](C(C)C)N(C)C)[C@H](C)N=[N+]=[N-]
- GI50 [1]: 13 nM
- GI50 [2]: 34 nM

Structure (SMILES): CC[C@H](C)[C@@H]([C@@H](CC(=O)N1CCC[C@H]1[C@H](OC)[C@@H](C)C(=O)NCCc1ccccc1)OC)N(C)C(=O)[C@@H](NC(=O)[C@H](C(C)C)N(C)C)[C@H](C)N=[N+]=[N-]
- GI50 [1]: 3.1 nM
- GI50 [2]: 4.7 nM

Structure (SMILES): CC[C@H](C)[C@@H]([C@@H](CC(=O)N1CCC[C@H]1[C@H](OC)[C@@H](C)C(=O)NCCc1ccccn1)OC)N(C)C(=O)[C@@H](NC(=O)[C@H](C(C)C)N(C)C)[C@H](C)N=[N+]=[N-]
- GI50 [1]: 3.7 nM
- GI50 [2]: 5.1 nM

Structure (SMILES): CC[C@H](C)[C@@H]([C@@H](CC(=O)N1CCC[C@H]1[C@H](OC)[C@@H](C)C(=O)NCCc1ccc(Cl)cc1)OC)N(C)C(=O)[C@@H](NC(=O)[C@H](C(C)C)N(C)C)[C@H](C)N=[N+]=[N-]
- GI50 [1]: 33 nM
- GI50 [2]: 40 nM

Structure (SMILES): CC[C@H](C)[C@@H]([C@@H](CC(=O)N1CCC[C@H]1[C@H](OC)[C@@H](C)C(=O)N[C@@H](Cc1ccccc1)c1nccs1)OC)N(C)C(=O)[C@@H](NC(=O)[C@H](C(C)C)N(C)C)[C@H](C)N=[N+]=[N-]
- GI50 [1]: 18 nM
- GI50 [2]: 33 nM
- inhibition [3]: Active

Structure (SMILES): CC[C@H](C)[C@@H]([C@@H](CC(=O)N1CCC[C@H]1[C@H](OC)[C@@H](C)C(=O)NCCc1ccccn1)OC)N(C)C(=O)[C@H](CO)NC(=O)[C@H](C(C)C)N(C)C
- GI50 [1]: > 1000 nM
- GI50 [2]: > 1000 nM

Structure (SMILES): CC[C@H](C)[C@@H]([C@@H](CC(=O)N1CCC[C@H]1[C@H](OC)[C@@H](C)C(=O)N[C@@H](Cc1ccccc1)C(=O)OC)OC)N(C)C(=O)[C@H](CS)NC(=O)[C@H](C(C)C)N(C)C (NMe2Val-C[Dil][Dolaproine]F-OMe)
- GI50 [1]: 3.2 nM
- GI50 [2]: 3.8 nM

Structure (SMILES): CC[C@H](C)[C@@H]([C@@H](CC(=O)N1CCC[C@H]1[C@H](OC)[C@@H](C)C(=O)N[C@@H](Cc1ccccc1)C(=O)OC)OC)N(C)C(=O)[C@H](CC(=O)O)NC(=O)[C@H](C(C)C)N(C)C (NMe2Val-D[Dil][Dolaproine]F-OMe)
- GI50 [1]: > 1000 nM
- GI50 [2]: 610 nM

Structure (SMILES): CC[C@H](C)[C@@H]([C@@H](CC(=O)N1CCC[C@H]1[C@H](OC)[C@@H](C)C(=O)N[C@@H](Cc1ccccc1)C(=O)OC)OC)N(C)C(=O)[C@H](CCCCN)NC(=O)[C@H](C(C)C)N(C)C (NMe2Val-K[Dil][Dolaproine]F-OMe)
- GI50 [1]: 340 nM

Structure (SMILES): CC[C@H](C)[C@@H]([C@@H](CC(=O)N1CCC[C@H]1[C@H](OC)[C@@H](C)C(=O)N[C@@H](Cc1ccccc1)C(=O)O)OC)N(C)C(=O)[C@H](CO)NC(=O)[C@H](C(C)C)N(C)C (NMe2Val-S[Dil][Dolaproine]F-OH)
- GI50 [1]: 4.4 nM
- GI50 [2]: 19 nM

Structure (SMILES): CC[C@H](C)[C@@H]([C@@H](CC(=O)N1CCC[C@H]1[C@H](OC)[C@@H](C)C(=O)N[C@@H](Cc1ccccc1)C(=O)OC)OC)N(C)C(=O)[C@H](CO)NC(=O)[C@H](C(C)C)N(C)C (NMe2Val-S[Dil][Dolaproine]F-OMe)
- GI50 [1]: 0.34 nM
- GI50 [2]: 1.2 nM

Structure (SMILES): CC[C@H](C)[C@@H]([C@@H](CC(=O)N1CCC[C@H]1[C@H](OC)[C@@H](C)C(=O)N[C@@H](Cc1ccccc1)C(=O)O)OC)N(C)C(=O)[C@@H](NC(=O)[C@H](C(C)C)N(C)C)[C@@H](C)O (NMe2Val-T[Dil][Dolaproine]F-OH)
- GI50 [1]: 3.5 nM
- GI50 [2]: 5 nM

Structure (SMILES): CC[C@H](C)[C@@H]([C@@H](CC(=O)N1CCC[C@H]1[C@H](OC)[C@@H](C)C(=O)N[C@@H](Cc1ccccc1)C(=O)OC)OC)N(C)C(=O)[C@@H](NC(=O)[C@H](C(C)C)N(C)C)[C@@H](C)O (NMe2Val-T[Dil][Dolaproine]F-OMe)
- GI50 [1]: 0.16 nM
- GI50 [2]: 0.38 nM

Structure (SMILES): CC[C@H](C)[C@@H]([C@@H](CC(=O)N1CCC[C@H]1[C@H](OC)[C@@H](C)C(=O)N[C@@H](Cc1ccccc1)C(N)=O)OC)N(C)C(=O)[C@@H](NC(=O)[C@H](C(C)C)N(C)C)[C@H](C)N=[N+]=[N-] (NMe2Val-[Abu(3S-N3)][Dil][Dolaproine]F-NH2)
- GI50 [1]: 0.4 nM
- GI50 [2]: 1.7 nM

Structure (SMILES): CC[C@H](C)[C@@H]([C@@H](CC(=O)N1CCC[C@H]1[C@H](OC)[C@@H](C)C(=O)N[C@@H](Cc1ccccc1)C(=O)NC(C)(C)C)OC)N(C)C(=O)[C@@H](NC(=O)[C@H](C(C)C)N(C)C)[C@H](C)N=[N+]=[N-] (NMe2Val-[Abu(3S-N3)][Dil][Dolaproine]F-NHtBu)
- GI50 [1]: 0.4 nM
- GI50 [2]: 1.2 nM

Structure (SMILES): CC[C@H](C)[C@@H]([C@@H](CC(=O)N1CCC[C@H]1[C@H](OC)[C@@H](C)C(=O)N[C@@H](Cc1ccccc1)C(=O)O)OC)N(C)C(=O)[C@@H](NC(=O)[C@H](C(C)C)N(C)C)[C@H](C)N=[N+]=[N-] (NMe2Val-[Abu(3S-N3)][Dil][Dolaproine]F-OH)
- GI50 [1]: > 1000 nM
- GI50 [2]: > 1000 nM

Structure (SMILES): CC[C@H](C)[C@@H]([C@@H](CC(=O)N1CCC[C@H]1[C@H](OC)[C@@H](C)C(=O)N[C@@H](Cc1ccccc1)C(=O)OC)OC)N(C)C(=O)[C@@H](NC(=O)[C@H](C(C)C)N(C)C)[C@H](C)N=[N+]=[N-] (NMe2Val-[Abu(3S-N3)][Dil][Dolaproine]F-OMe)
- GI50 [1]: 0.041 nM
- GI50 [2]: 0.093 nM

Structure (SMILES): CC[C@H](C)[C@@H]([C@@H](CC(=O)N1CCC[C@H]1[C@H](OC)[C@@H](C)C(=O)N[C@@H](Cc1ccccc1)C(=O)OC(C)(C)C)OC)N(C)C(=O)[C@@H](NC(=O)[C@H](C(C)C)N(C)C)[C@H](C)N=[N+]=[N-] (NMe2Val-[Abu(3S-N3)][Dil][Dolaproine]F-OtBu)
- GI50 [1]: 0.089 nM
- GI50 [2]: 0.045 nM

Structure (SMILES): CC[C@H](C)[C@@H]([C@@H](CC(=O)N1CCC[C@H]1[C@H](OC)[C@@H](C)C(=O)N[C@@H](Cc1ccccc1)C(=O)O)OC)N(C)C(=O)[C@@H](NC(=O)[C@H](C(C)C)N(C)C)[C@H](C)N (NMe2Val-[Abu(3S-NH2)][Dil][Dolaproine]F-OH)
- GI50 [1]: 2.5 nM
- GI50 [2]: 11 nM

Structure (SMILES): CC[C@H](C)[C@@H]([C@@H](CC(=O)N1CCC[C@H]1[C@H](OC)[C@@H](C)C(=O)N[C@@H](Cc1ccccc1)C(=O)OC)OC)N(C)C(=O)[C@@H](NC(=O)[C@H](C(C)C)N(C)C)[C@H](C)N (NMe2Val-[Abu(3S-NH2)][Dil][Dolaproine]F-OMe)
- GI50 [1]: 0.076 nM
- GI50 [2]: 0.54 nM

Structure (SMILES): CC[C@H](C)[C@@H]([C@@H](CC(=O)N1CCC[C@H]1[C@H](OC)[C@@H](C)C(=O)N[C@@H](Cc1ccccc1)C(=O)OC)OC)N(C)C(=O)[C@H](CCN=[N+]=[N-])NC(=O)[C@H](C(C)C)N(C)C (NMe2Val-[Aha][Dil][Dolaproine]F-OMe)
- GI50 [1]: 0.43 nM
- GI50 [2]: 1.1 nM

Structure (SMILES): CC[C@H](C)[C@@H]([C@@H](CC(=O)N1CCC[C@H]1[C@H](OC)[C@@H](C)C(=O)N[C@@H](Cc1ccccc1)C(=O)OC)OC)N(C)C(=O)[C@H](CCN)NC(=O)[C@H](C(C)C)N(C)C (NMe2Val-[Dab][Dil][Dolaproine]F-OMe)
- GI50 [1]: > 1000 nM
- GI50 [2]: > 1000 nM

Structure (SMILES): CC[C@H](C)[C@@H]([C@@H](CC(=O)N1CCC[C@H]1[C@H](OC)[C@@H](C)C(=O)N[C@@H](Cc1ccccc1)C(=O)OC)OC)N(C)C(=O)[C@H](CN=[N+]=[N-])NC(=O)[C@H](C(C)C)N(C)C (NMe2Val-[Dap(N3)][Dil][Dolaproine]F-OMe)
- GI50 [1]: 0.036 nM
- GI50 [2]: 0.11 nM

Structure (SMILES): CC[C@H](C)[C@@H]([C@@H](CC(=O)N1CCC[C@H]1[C@H](OC)[C@@H](C)C(=O)N[C@@H](Cc1ccccc1)C(=O)OC)OC)N(C)C(=O)[C@H](CN)NC(=O)[C@H](C(C)C)N(C)C (NMe2Val-[Dap][Dil][Dolaproine]F-OMe)
- GI50 [1]: 3.5 nM
- GI50 [2]: 20 nM

Structure (SMILES): C#CC[C@H](NC(=O)[C@H](C(C)C)N(C)C)C(=O)N(C)[C@@H]([C@@H](C)CC)[C@@H](CC(=O)N1CCC[C@H]1[C@H](OC)[C@@H](C)C(=O)N[C@@H](Cc1ccccc1)C(=O)OC)OC (NMe2Val-[Pra][Dil][Dolaproine]F-OMe)
- GI50 [1]: 0.16 nM
- GI50 [2]: 0.36 nM
